The text below walks through data of US7935694B2, “Lactam compounds useful as protein kinase inhibitors” (Millennium Pharmaceuticals, Inc., priority 2004, dated 2011).

For this assay, the target named is T1, recombinant murine Aurora A enzyme (Mus musculus, UniProt P97477).
T1 construct: hexahistidine (His6) (N); made in house; host or cells: insect cells (baculovirus, Bac-to-Bac)
T1 sequence (P97477 1-395): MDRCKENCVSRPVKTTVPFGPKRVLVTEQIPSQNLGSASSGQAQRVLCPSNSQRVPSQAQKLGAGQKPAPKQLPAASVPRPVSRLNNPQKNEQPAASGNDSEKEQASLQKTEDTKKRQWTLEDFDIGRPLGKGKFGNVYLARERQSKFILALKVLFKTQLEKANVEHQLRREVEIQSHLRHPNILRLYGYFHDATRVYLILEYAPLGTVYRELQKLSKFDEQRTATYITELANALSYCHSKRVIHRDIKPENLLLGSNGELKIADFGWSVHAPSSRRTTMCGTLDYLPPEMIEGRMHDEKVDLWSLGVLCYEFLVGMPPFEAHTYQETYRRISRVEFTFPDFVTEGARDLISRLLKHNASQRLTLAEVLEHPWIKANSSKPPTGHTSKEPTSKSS
As to the kind of experiment: Aurora A DELFIA Kinase Assay. Format: biochemical. Conditions: 1 mM ATP, 20 nM enzyme, 10 minutes at room temperature. As for the experimental part: Recombinant mouse Aurora A with an amino-terminus hexahistidine tag (His-Aurora A) was expressed using a standard baculovirus vector and insect cell expression system (Bac-to-Bac®, Invitrogen). Soluble, recombinant mouse Aurora A was purified from insect cells using Ni-NTA agarose (Qiagen) as described by the manufacturer and further purified over an S75 size exclusion column (Amersham Pharmacia Biotech). The mouse Aurora A enzymatic reaction totaled 25 μL and contained 25 mM Tris-HCl (pH 8.5), 2.5 mM MgCl2, 0.05% Surfact-AMPS-20, 5 mM Sodium Fluoride, 5 mM DTT, 1 mM ATP, 3 μM peptide substrate (Biotin-β-[…]), and 20 nM recombinant murine Aurora A enzyme. The enzymatic reaction mixture, with and without Aurora inhibitors, was incubated for 10 minutes at room temperature before termination with 100 μL of stop buffer (1% BSA, 0.05% Surfact-AMPS-20, and 100 mM EDTA). A total of 100 μL of the enzyme reaction mixture was transferred to wells of a Neutravidin-coated 96-well plate (Pierce) and incubated at room temperature for 30 minutes. The wells were washed with wash buffer (25 mM Tris, 150 mM sodium chloride, and 0.1% Tween 20) and incubated for 1 hour with 100 μL of antibody reaction mixture containing 1% BSA, 0.05% Surfact-AMPS-20, anti-phospho-PKA rabbit polyclonal antibody (1:2000, New England Biolabs), and europium labeled anti-rabbit IgG (1:2000, Perkin Elmer). The wells were washed and then the bound europium was liberated using 100 μL of Enhancement Solution (Perkin Elmer). Quantification of europium was done using a WallacTM EnVision (Perkin Elmer).
What is called IC50 is the midpoint of a concentration-inhibition curve. On to `NCCc1cccc(Nc2ncc3c(n2)-c2ccc(Cl)cc2NC(=O)C3)c1` [Compound I-86, 2-[3-(2-Amino-ethyl)-phenylamino]-9-chloro-5H,7H-benzo[b]pyrimido[4,5-d]azepin-6-one], for which the IC50 was no more than 500 nM. On to `COc1ccc(Nc2ncc3c(n2)-c2ccc(C(=O)NCCN)cc2NC(=O)C3)cc1OC` [Compound I-71, 2-(3,4-Dimethoxy-phenylamino)-6-oxo-6,7-dihydro-5H-benzo[b]pyrimido[4,5-d]azepine-9-carboxylic acid (2-amino-ethyl)-amide], for which the IC50 is no more than 500 nM. Regarding `NCC#Cc1cccc(Nc2ncc3c(n2)-c2ccc(Cl)cc2NC(=O)C3)c1` [Compound I-67, 2-[3-(3-Amino-prop-1-ynyl)-phenylamino]-9-chloro-5H,7H-benzo[b]pyrimido[4,5-d]azepin-6-one], the IC50 is no more than 500 nM. Next, `CCc1ccc2c(c1)NC(=O)Cc1cnc(Nc3ccc(OC)c(OC)c3)nc1-2` [Compound I-37, 2-(3,4-Dimethoxy-phenylamino)-9-ethyl-5H,7H-benzo[b]pyrimido[4,5-d]azepin-6-one]: no more than 500 nM; `COc1ccc(Nc2ncc3c(n2)-c2ccc(C#CCN)cc2NC(=O)C3)cc1OC` [Compound I-38, 9-(3-Amino-prop-1-ynyl)-2-(3,4-dimethoxy-phenylamino)-5H,7H-benzo[b]pyrimido[4,5-d]azepin-6-one]: no more than 500 nM. As for `COc1ccc(Nc2ncc3c(n2)-c2cc(Br)ccc2NC(=O)C3)cc1OC` [Compound I-18, 10-Bromo-2-(3,4-dimethoxy-phenylamino)-5H,7H-benzo[b]pyrimido[4,5-d]azepin-6-one], the figure is no more than 5000 nM; as for `Cc1ccc2c(c1)NC(=O)Cc1cnc(Nc3ccc(C(=O)O)cc3)nc1-2` [Compound I-9, 4-(9-Methyl-6-oxo-6,7-dihydro-5H-benzo[b]pyrimido[4,5-d]azepin-2-ylamino)-benzoic acid], no more than 500 nM; as for `O=C1Cc2cnc(Nc3ccc(C#CCN4CCCC4)cc3)nc2-c2ccc(Cl)cc2N1` [Compound I-47, 9-Chloro-2-[4-(3-pyrrolidin-1-yl-prop-1-ynyl)-phenylamino]-5H,7H-benzo[b]-pyrimido[4,5-d]azepin-6-one], no more than 500 nM. Next, `COc1ccc(Nc2ncc3c(n2)-c2ccc(I)cc2NC(=O)C3)cc1OC` [Compound I-30, 2-(3,4-dimethoxy-phenylamino)-9-iodo-5H,7H-benzo[b]pyrimido[4,5-d]azepin-6-one]: no more than 500 nM. Turning to `COc1ccc(Nc2ncc3c(n2)-c2ccc(C#CCN4CCCC4)cc2NC(=O)C3)cc1OC` [Compound I-32, 2-(3,4-Dimethoxy-phenylamino)-9-(3-pyrrolidin-1-yl-prop-1-ynyl)-5H,7H benzo[b]pyrimido[4,5-d]azepin-6-one], the half-maximal inhibitory concentration (IC50) is no more than 500 nM. In the case of `COc1ccc(Nc2ncc3c(n2)-c2ccc(C(=O)NCCCN)cc2NC(=O)C3)cc1OC` [Compound I-72, 2-(3,4-Dimethoxy-phenylamino)-6-oxo-6,7-dihydro-5H-benzo[b]pyrimido[4,5-d]azepine-9-carboxylic acid (3-amino-propyl)-amide], the IC50 is no more than 500 nM. Turning to `COc1ccc(Nc2ncc3c(n2)-c2ccc(Cl)cc2NC(=O)C3)cc1OC` [Compound I-2, 9-Chloro-2-(3,4-dimethoxy-phenylamino)-5H,7H-benzo[b]pyrimido[4,5-d]azepin-6-one], the IC50 is no more than 500 nM. Next, `COc1ccc(Nc2ncc3c(n2)-c2ccc(C(N)=O)cc2NC(=O)C3)cc1OC` [Compound I-70, 2-(3,4-dimethoxy-phenylamino)-6-oxo-6,7-dihydro-5H-benzo[b]pyrimido[4,5-d]azepine-9-carboxylic acid amide]: no more than 500 nM.

`COc1ccc(Nc2ncc3c(n2)-c2ccc(CCCN(C)C)cc2NC(=O)C3)cc1OC` [Compound I-88, 2-(3,4-Dimethoxy-phenylamino)-9-(3-dimethylamino-propyl)-5H,7H-benzo[b]pyrimido[4,5-d]azepin-6-one]: the IC50 is no more than 500 nM. As for `CN1C(=O)Cc2cnc(Nc3ccc(C(=O)O)cc3)nc2-c2ccc(Cl)cc21` [Compound I-7, 4-(9-Chloro-7-methyl-6-oxo-6,7-dihydro-5H-benzo[b]pyrimido[4,5-d]azepin-2-ylamino)-benzoic acid], the figure is no more than 500 nM; as for `COc1ccc(Nc2ncc3c(n2)-c2ccc(C(=O)O)cc2NC(=O)C3)cc1OC` [Compound I-53, 2-(3,4-dimethoxy-phenylamino)-6-oxo-6,7-dihydro-5H-benzo[b]pyrimido[4,5-d]azepine-9-carboxylic acid], no more than 500 nM. As for `O=C1Cc2cnc(Nc3cccc(C#CCN4CCCC4)c3)nc2-c2ccc(Cl)cc2N1` [Compound I-89, 9-Chloro-2-[3-(3-pyrrolidin-1-yl-prop-1-ynyl)-phenylamino]-5H,7H-benzo[b]-pyrimido[4,5-d]azepin-6-one], the figure is no more than 500 nM. Take `COc1ccc(Nc2ncc3c(n2)-c2ccccc2NC(=O)C3)cc1OC` [Compound I-27, 2-(3,4-Dimethoxy-phenylamino)-5H,7H-benzo[b]pyrimido[4,5-d]azepin-6-one]: the IC50 was no more than 500 nM. Take `COc1ccc(Nc2ncc3c(n2)-c2ccc(C#CCN(C)C)cc2NC(=O)C3)cc1OC` [Compound I-91, 2-(3,4-Dimethoxy-phenylamino)-9-(3-dimethylamino-prop-1-ynyl)-5H,7H-benzo[b]pyrimido[4,5-d]azepin-6-one]: the IC50 is no more than 500 nM. As for `CNCCCc1ccc2c(c1)NC(=O)Cc1cnc(Nc3ccc(OC)c(OC)c3)nc1-2` [Compound I-87, 2-(3,4-Dimethoxy-phenylamino)-9-(3-methylamino-propyl)-5H,7H-benzo[b]pyrimido[4,5-d]azepin-6-one], the IC50 is no more than 500 nM. Take `COc1ccc(Nc2ncc3c(n2)-c2ccc(CCCN)cc2NC(=O)C3)cc1OC` [Compound I-50, 9-(3-Amino-propyl)-2-(3,4-dimethoxy-phenylamino)-5H,7H-benzo[b]pyrimido[4,5-d]azepin-6-one]: the 50% inhibitory concentration (IC50) is no more than 500 nM. Consider `O=C(O)c1ccc(Nc2ncc3c(n2)-c2ccc(Cl)cc2N(c2ccccc2)C(=O)C3)cc1` [Compound I-10, 4-(9-Chloro-6-oxo-7-phenyl-6,7-dihydro-5H-benzo[b]pyrimido[4,5-d]azepin-2-ylamino)-benzoic acid], for which the half-maximal inhibitory concentration (IC50) is no more than 500 nM. For `O=C1Cc2cnc(Nc3ccc(CCCN4CCCC4)cc3)nc2-c2ccc(Cl)cc2N1` [Compound I-66, 9-Chloro-2-[4-(3-pyrrolidin-1-yl-propyl)-phenylamino]-5H,7H-benzo[b]pyrimido[4,5-d]-azepin-6-one], the IC50 was no more than 500 nM. On to `NCCCCNC(=O)c1cccc(Nc2ncc3c(n2)-c2ccc(Cl)cc2NC(=O)C3)c1` [Compound I-64, N-(4-Amino-butyl)-3-(9-chloro-6-oxo-6,7-dihydro-5H-benzo[b]pyrimido[4,5-d]azepin-2-ylamino)-benzamide], for which the IC50 was no more than 500 nM. Take `COc1ccc(Nc2ncc3c(n2)-c2ccc(CCCN4CCCC4)cc2NC(=O)C3)cc1OC` [Compound I-49, 2-(3,4-Dimethoxy-phenylamino)-9-(3-pyrrolidin-1-yl-propyl)-5H,7H-benzo[b]-pyrimido[4,5-d]azepin-6-one]: the IC50 was no more than 500 nM. For the compound `NCCNC(=O)c1cccc(Nc2ncc3c(n2)-c2ccc(Cl)cc2NC(=O)C3)c1` [Compound I-62, N-(2-Amino-ethyl)-3-(9-chloro-6-oxo-6,7-dihydro-5H-benzo[b]pyrimido[4,5-d]azepin-2-ylamino)-benzamide], the IC50 was no more than 500 nM. Take `CCCc1ccc2c(c1)NC(=O)Cc1cnc(Nc3ccc(OC)c(OC)c3)nc1-2` [Compound I-82, 2-(3,4-Dimethoxy-phenylamino)-9-propyl-5H,7H-benzo[b]pyrimido[4,5-d]azepin-6-one]: the IC50 is no more than 500 nM. With `COc1ccc(Nc2ncc3c(n2)-c2ccc(C(=O)NCCCCN)cc2NC(=O)C3)cc1OC` [Compound I-73, 2-(3,4-Dimethoxy-phenylamino)-6-oxo-6,7-dihydro-5H-benzo[b]pyrimido[4,5-d]azepine-9-carboxylic acid (4-amino-butyl)-amide], the IC50 was no more than 500 nM. For the compound `C#Cc1ccc2c(c1)NC(=O)Cc1cnc(Nc3ccc(OC)c(OC)c3)nc1-2` [Compound I-33, 2-(3,4-dimethoxy-phenylamino)-9-ethynyl-5H,7H-benzo[b]pyrimido[4,5-d]azepin-6-one], the IC50 was no more than 500 nM. As for `COc1ccc(Nc2ncc3c(n2)-c2ccc(C)cc2NC(=O)C3)cc1OC` [Compound I-42, 2-(3,4-Dimethoxy-phenylamino)-9-methyl-5H,7H-benzo[b]pyrimido[4,5-d]azepin-6-one], the figure is no more than 500 nM.
